The values that follow come from US7625894B2, “Pyrrolo[2,3-d]Pyrimidines as Protein Tyrosine Kinase Inhibitors” (Novartis AG, priority 2004, dated 2009).

Test [1] addresses T1, c-Raf-1 (Homo sapiens, UniProt P04049).
T1 construct: made in house; host or cells: Sf21 insect cells, triple baculovirus infection (GST-c-Raf-1, v-Ras, v-Src)
The test is described as follows: c-Raf-1 protein kinase assay. It is filed as biochemical. Set-up: dose or concentration left out as unconfirmed. Here is the method:
c-Raf-1 protein kinase assay: Recombinant c-Raf-1 protein is obtained by triple infection of Sf21 cells with GST-c-Raf-1 recombinant baculovirus together with v-Src and v-Ras recombinant baculoviruses that are required for active c-Raf-1 kinase production (Williams et al., PNAS 1992; 89:2922-6). Active Ras (v-Ras) is required to recruit c-Raf-1 to the cell membrane and v-Src to phosphorylate c-Raf-1 to fully activate it. Cells are seeded at 2.5×10^7 cells per 150 mm dish and allowed to attach to a 150 mm dish for 1 hr at RT. Media (SF900II containing 10% FBS) is aspirated and recombinant baculovirus GST-c-Raf-1, v-Ras and v-Src are added at MOI of 3.0, 2.5 and 2.5, respectively, in a total volume of 4-5 mL. Cells are incubated for 1 hr at RT and then 15 mL of medium is added. Infected cells are incubated for 48-72 hr at 27° C. Infected Sf21 cells are scraped and collected into a 50 mL tube and centrifuged for 10 min at 4° C. at 1100 g in a Sorvall centrifuge. The cell pellet is washed once with ice cold PBS and lysed with 0.6 mL lysis buffer per 2.5×10^7 cells. Complete lysis of cells is achieved after 10 min on ice with occasional pipetting. The cell lysates are centrifuged for 10 min at 4° C. at 14,500 g in a Sorvall centrifuge with SS-34 rotor and the supernatant is transferred to a fresh tube and stored at −80° C. c-Raf-1 is purified from cell lysates using 100 μL of packed glutathione-sepharose 4B beads equilibrated in ice cold PBS per 2.5×10^7 cells. GST-c-Raf-1 is allowed to bind to the beads at 4° C. for 1 hr with rocking. Bound GST-c-Raf-1 with beads is transferred to a column. The column is washed once with lysis buffer and twice with ice cold Tris buffered saline. Ice cold elution buffer is added and column flow is stopped to allow the free glutathione to disrupt the interaction of GST-c-Raf-1 with glutathione sepharose beads. Fractions (1 mL) are collected into pre-chilled tubes. Each tube contains 10% glycerol (final concentration) to maintain kinase activity during freeze thaw cycles. Purified fractions of GST-c-Raf-1 kinase protein are stored at −80° C.
IκB is used as substrate for the c-Raf-1 kinase. IκB is expressed in bacteria as a His-tagged protein BL21. LysS bacteria containing the IκB plasmid are grown to an OD600 of 0.6 in LB medium, then induced to express the IκB with IPTG (final concentration of 1 mM) for 3 hrs at 37° C. and then bacteria are lysed by sonication (microtip limit setting for 3 times at 1 min each in sonication buffer [50 mM Tris pH 8.0, 1 mM DTT, 1 mM EDTA] and centrifuged at 10,000 g for 15 min. The supernatant is mixed with ammonium sulfate to give a final concentration of 30%. This mixture is rocked for 15 min at 4 C then spun at 10,000 g for 15 min. The pellet is resuspended in binding buffer (Novagen) containing 10 mM BSA. This solution is applied to Ni-agarose (Novagen) and washed according to the Novagen manual. IκB is eluted from the column using elution buffer (0.4 M imidazole, 0.2 M NaCl, 8 mM Tris pH 7.9). Fractions containing protein are dialysed in 50 mM Tris pH 8, 1 mM DTT. The activity of c-Raf-1 protein kinase is assayed in the presence or absence of inhibitors, by measuring the incorporation of ^33P from [γ^33P] ATP into IκB. The assay is carried out in 96-well plates at ambient temperature for 60 min. It contains (total volume of 30 μL): c-Raf-1 kinase (400 ng), 25 mM Tris.HCl, pH 7.5, 5 mM MgCl2, 5 mM MnCl2, 10 μM Na3VO4, 1 mM DTT and 0.3 μCi/assay [γ^33P]-ATP (10 μM ATP) using 600 ng IκB in the presence of 1% DMSO. Reactions are terminated by adding 10 μL of 250 mM EDTA and 30 μL of the reaction mixture is transferred onto Immobilon-PVDF membrane (Millipore, Bedford, Mass., USA) previously soaked for 5 min with methanol, rinsed with water, then soaked for 5 min with 0.5% H3PO4 and mounted on vacuum manifold with disconnected vacuum source. After spotting all samples, vacuum is connected and each well rinsed with 200 μL 0.5% H3PO4. […]

In test [2] the target is T2, c-Abl (Homo sapiens, UniProt P00519).
T2 construct: The His-tagged kinase domain of c-Abl is cloned and expressed in the baculovirus/Sf9 system; His; made in house; host or cells: baculovirus/Sf9
T2 sequence (P00519 242-493 limits assumed): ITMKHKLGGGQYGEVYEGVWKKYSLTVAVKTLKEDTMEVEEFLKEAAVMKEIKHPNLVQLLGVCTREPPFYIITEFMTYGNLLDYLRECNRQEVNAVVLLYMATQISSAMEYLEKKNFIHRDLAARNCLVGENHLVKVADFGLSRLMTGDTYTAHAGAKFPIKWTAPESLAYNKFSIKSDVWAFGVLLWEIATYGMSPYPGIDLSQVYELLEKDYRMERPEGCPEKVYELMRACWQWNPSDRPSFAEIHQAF
The test is described as follows: Test for activity against c-Abl protein tyrosine kinase (filter binding assay). It is filed as biochemical. The procedure:
Test for activity against c-Abl protein tyrosine kinase. The test is conducted as a filter binding assay as follows: The His-tagged kinase domain of c-Abl is cloned and expressed in the baculovirus/Sf9 system as described by Bhat et al., J. Biol. Chem. 272, 16170-5 (1997). A protein of 37 kD (c-Abl kinase) is purified by a two-step procedure over a cobalt metal chelate column followed by an anion exchange column with a yield of 1-2 mg/L of Sf9 cells. The purity of the c-Abl kinase is >90% as judged by SDS-PAGE after Coomassie blue staining. The assay contains: c-Abl kinase (50 ng), 20 mM Tris.HCl, pH 7.5, 10 mM MgCl2, 10 μM Na3VO4, 1 mM DTT and 0.06 μCi/assay [γ^33 P]-ATP (5 μM ATP) using 30 μg/mL poly-Ala,Glu,Lys,Tyr-6:2:5:1 (Poly-AEKY, Sigma P1152) in the presence of 1% DMSO, total volume of 30 μL. Reactions are terminated by adding 10 μL of 250 mM EDTA, and 30 μL of the reaction mixture is transferred onto Immobilon-PVDF membrane (Millipore, Bedford, Mass., USA) previously soaked for 5 min with methanol, rinsed with water, then soaked for 5 min with 0.5% H3PO4 and mounted on vacuum manifold with disconnected vacuum source. After spotting all samples, vacuum is connected and each well rinsed with 200 μL 0.5% H3PO4. Membranes are removed and washed on a shaker with 0.5% H3PO4 (4 times) and once with ethanol. Membranes are counted after drying at ambient temperature, mounting in Packard TopCount 96-well frame, and addition of 10 μL/well of Microscint™ (Packard).

In general, IC50 refers to the concentration that gives 50% inhibition.

In the case of `CN(C)c1ncnc2[nH]c(-c3ccc(C(C)(C)O)cc3)cc12` [Example 34, 2-[4-(4-Dimethylamino-7H-pyrrolo[2,3-d]pyrimidin-6-yl)-phenyl]-propan-2-ol], in test [1], the “c-Raf-1/ %-inh. [%]” value came out at 50%. This compound had an IC50 in test [2] of 21 nM.
As for `CNc1ncnc2[nH]c(-c3ccc(C(C)(C)O)cc3)cc12` [Example 35, 2-[4-(4-Methylamino-7H-pyrrolo[2,3-d]pyrimidin-6-yl)-phenyl]-propan-2-ol], in test [1], the “c-Raf-1/ %-inh. [%]” value came out at 44%. Also, the IC50 in test [2] was 10 nM.
As for “[4-(4-Methylamino-7H-pyrrolo[2,3-d]pyrimidin-6-yl)-phenyl]-morpholin-4-yl-methanone [Example 2]”, the “c-Raf-1/ %-inh. [%]” value in test [1] is given as 56%. The same compound returned a 50% inhibitory concentration (IC50) in test [2] of 35 nM.
